Here are results for one molecule from patent US20260272983A1, “METHODS AND COMPOSITIONS FOR TREATING AUTOIMMUNE DISEASES” (priority 2023, published 2026).

This experiment has as its system subject having an autoimmune disease. The class given is in vivo, human. Conditions: IV cyclophosphamide regimen of TABLE 1, no fludarabine, before CAR T infusion.

Text: T cells are obtained from a subject having an autoimmune disease (for example, an autoimmune disease selected from (SLE), lupus nephritis, SLE with anti-dsDNA antibodies, pemphigus vulgaris (PV), mucosal PV, mucocutaneous PV, myasthenia gravis (MG), MuSK-associated MG, AChR MG, myositis, membranous nephropathy, anti-synthetase syndrome, dermatomyositis, immune mediated necrotizing myopathy, multiple sclerosis, neuromyelitis optica, chronic inflammatory demyelinating polyneuropathy, anti-NMDA Receptor encephalitis, Lambert-Eaton syndrome, pemphigus foliaceus, epidermolysis bullosa acquisita, bullous pemphigoid, Goodpasture's syndrome, rheumatoid arthritis, systemic sclerosis, anti-neutrophil cytoplasmic antibody (ANCA)-associated vasculitis, immune thrombocytopenic purpura, antiphospholipid syndrome, autoimmune hemolytic anemia, type 1 diabetes, Grave's disease, Hashimoto's disease, and Sjogren's syndrome). […]
A dose of CAR T cells (e.g., from 1×10^6 to 1×10^7 cells/kg bodyweight) is intravenously administered to the subject. The subject is monitored post-infusion for B-cell levels, white blood cell count, CAR T cell levels, and for autoimmune disease markers (e.g., autoantibody levels).

For `O=P1(N(CCCl)CCCl)NCCCO1` (stereo not shown) [cyclophosphamide], the “effectiveness of the cyclophosphamide preconditioning regimen used prior to CD19-CAR T cell therapy in treating the autoimmune disease” value was “effective in the treatment of the autoimmune disease”.
